Results taken from patent EP4714952A1, “COMPOUND AND USE THEREOF” (Autobio Group Co., Ltd., priority 2023, dated 2025).
pIC50: −log10 of the molar value. Where two headings read alike, the source gives them in different places.

Columns and labels:
PDE3A = molecular target: T1, PDE3A (Homo sapiens, UniProt Q14432); assay: In vitro inhibitory effect on PDE3A enzyme (AMP-Glo assay); assay type: biochemical
T1 construct: purchased BPS
Description: (§1) 1. Table 1 Main reagents and consumables for in vitro detection of inhibitory effect
(§2) 2. Preparation of experimental buffers Reaction buffer (5×): 50 mM Tris-HCl (buffer), 50 mM MgCl2, 0.5% BSA, 0.25% Tween-20, pH 7.4, stored at -20°C. 3. […] The starting concentration of the reference substance serial dilution was the Low control, and 1% DMSO-reaction buffer served as the High control. • 3) The enzyme was diluted to the desired concentration with 1× reaction buffer, and 4 µL of the diluted solution was transferred to the assay plate. After centrifugation, the 384-well low dead-volume microplate was sealed with sealing film and incubated in the incubator at 23°C for 15 minutes. • 4) The substrate cAMP was diluted to the desired concentration using 1× reaction buffer, and 5 µL of the diluted solution was transferred to the assay plate. After centrifugation, the plate was sealed again and incubated in the incubator at 23°C for 60 minutes (PDE3A) or 10 minutes (PDE4B1). • 5) Then, 5 µL of Reagent I from the AMP-Glo™ Assay Kit was added to the assay plate. After centrifugation and sealing, the plate was incubated in the incubator at 23°C for 60 minutes. • 6) The detection solution was prepared according to the AMP-Glo™ Assay Kit instructions, and 10 µL of the detection solution was added to the assay plate. After centrifugation and sealing, the plate was incubated in the incubator at 23°C for 60 minutes. • 7) The readout was recorded using a multimode microplate reader. 4. […] 5.

PDE4B1 = molecular target: T2, PDE4B1 (Homo sapiens, UniProt Q07343); assay: In vitro inhibitory effect on PDE4B1 enzyme (AMP-Glo assay); assay type: biochemical
T2 construct: purchased Sigma
Description: as §1, §2

CYP2C9 = CYP2C9 (Homo sapiens, UniProt P11712); assay: In vitro CYP inhibition in human liver microsomes, CYP2C9
Description: (§3) 1.1 Working solutions (100×) of sample compounds and standard inhibitors were prepared.
(§4) 1.2 Microsomes were removed from a -80°C refrigerator, thawed on ice, labeled with the date, and stored in the refrigerator immediately after use.
(§5) 1.3 20 µL of substrate solution was added to the corresponding wells, while 20 µL of PB (phosphate buffer) was added to the blank wells.
(§6) 1.4 2 µL of sample compound solution and positive control working solution were added to the appropriate wells, while 2 µL of solvent was added to inhibitor-free wells and blank wells.
(§7) 1.5 HLM (human liver microsome) working solution was prepared.
(§8) 1.6 158 µL of HLM working solution was added to all wells of the plate.
(§9) 1.7 The plate was pre-incubated in a 37°C water bath for approximately 10 minutes.
(§10) 1.8 NADPH (nicotinamide adenosine denucleotide hydro-phosphoric acid, i.e. reduced form coenzyme II) cofactor solution was prepared.
(§11) 1.9 20 µL of NADPH cofactor solution was added to all incubation wells.
(§12) 1.10 The solution was mixed and the plate was placed in 37°C water bath to incubate CYP for 10 minutes.
(§13) 1.11 At designated time points, the reaction was terminated by adding 400 µL of cold stopping solution.
(§14) 1.13 200 µL of the supernatant was transferred into 100 µL of HPLC-grade water and vortexed for 10 minutes.
(§15) 1.14 Samples were subjected to LC/MS/MS analysis.
(§16) Concentration-inhibition percentage curves of the control compound and test compounds were plotted using XL Fit or SigmaPlot, followed by nonlinear regression analysis.
(§17) IC50 values were determined using a 3 or 4 parameter logistic equation.

CYP2D6 = CYP2D6 (Homo sapiens, UniProt P10635); assay: In vitro CYP inhibition in human liver microsomes, CYP2D6
Description: as §3, §4, §5, §6, §7, §8, §9, §10, §11, §12, §13, §14, §15, §16, §17

CYP3A-M = CYP3A-M (Homo sapiens, UniProt P08684); assay: In vitro CYP inhibition in human liver microsomes, CYP3A-M; conditions: microsomes
Description: as §3, §4, §5, §6, §7, §8, §9, §10, §11, §12, §16, §17

CYP1A2 = CYP1A2 (Homo sapiens, UniProt P05177); assay: In vitro CYP inhibition in human liver microsomes, CYP1A2
Description: as §3, §4, §5, §6, §7, §8, §9, §10, §11, §12, §13, §14, §15, §16, §17

CYP2C19 = CYP2C19 (Homo sapiens, UniProt P33261); assay: In vitro CYP inhibition in human liver microsomes, CYP2C19
Description: as §3, §4, §5, §6, §7, §8, §9, §10, §11, §12, §13, §14, §15, §16, §17

[1] = AMP-Glo Assay Kit, substrate cAMP, 23°C, 60 minutes, read-out: PDE3A (IC50)
[2] = AMP-Glo Assay Kit, substrate cAMP, 23°C, 10 minutes, read-out: PDE4B1 (IC50)

T2 sequence (Q07343 whole entry): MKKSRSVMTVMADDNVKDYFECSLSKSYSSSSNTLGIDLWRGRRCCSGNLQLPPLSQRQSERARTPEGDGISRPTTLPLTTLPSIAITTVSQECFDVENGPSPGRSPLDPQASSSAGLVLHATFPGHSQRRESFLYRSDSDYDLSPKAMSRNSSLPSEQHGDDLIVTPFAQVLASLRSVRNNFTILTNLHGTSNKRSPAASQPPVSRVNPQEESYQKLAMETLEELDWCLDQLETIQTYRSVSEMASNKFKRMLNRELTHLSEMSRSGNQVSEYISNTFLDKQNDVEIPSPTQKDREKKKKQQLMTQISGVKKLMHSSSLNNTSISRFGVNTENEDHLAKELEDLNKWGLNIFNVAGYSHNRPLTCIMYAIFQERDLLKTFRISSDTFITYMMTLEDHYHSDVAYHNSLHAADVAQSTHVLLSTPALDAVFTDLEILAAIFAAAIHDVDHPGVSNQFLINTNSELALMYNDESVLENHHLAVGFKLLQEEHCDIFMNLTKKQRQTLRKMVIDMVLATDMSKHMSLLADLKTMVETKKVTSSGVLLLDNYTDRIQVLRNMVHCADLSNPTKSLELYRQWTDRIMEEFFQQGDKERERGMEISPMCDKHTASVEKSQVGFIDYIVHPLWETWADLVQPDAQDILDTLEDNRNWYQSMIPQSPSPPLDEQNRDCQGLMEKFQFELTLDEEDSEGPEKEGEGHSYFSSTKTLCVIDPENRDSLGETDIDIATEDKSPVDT
T1 sequence (Q14432 whole entry): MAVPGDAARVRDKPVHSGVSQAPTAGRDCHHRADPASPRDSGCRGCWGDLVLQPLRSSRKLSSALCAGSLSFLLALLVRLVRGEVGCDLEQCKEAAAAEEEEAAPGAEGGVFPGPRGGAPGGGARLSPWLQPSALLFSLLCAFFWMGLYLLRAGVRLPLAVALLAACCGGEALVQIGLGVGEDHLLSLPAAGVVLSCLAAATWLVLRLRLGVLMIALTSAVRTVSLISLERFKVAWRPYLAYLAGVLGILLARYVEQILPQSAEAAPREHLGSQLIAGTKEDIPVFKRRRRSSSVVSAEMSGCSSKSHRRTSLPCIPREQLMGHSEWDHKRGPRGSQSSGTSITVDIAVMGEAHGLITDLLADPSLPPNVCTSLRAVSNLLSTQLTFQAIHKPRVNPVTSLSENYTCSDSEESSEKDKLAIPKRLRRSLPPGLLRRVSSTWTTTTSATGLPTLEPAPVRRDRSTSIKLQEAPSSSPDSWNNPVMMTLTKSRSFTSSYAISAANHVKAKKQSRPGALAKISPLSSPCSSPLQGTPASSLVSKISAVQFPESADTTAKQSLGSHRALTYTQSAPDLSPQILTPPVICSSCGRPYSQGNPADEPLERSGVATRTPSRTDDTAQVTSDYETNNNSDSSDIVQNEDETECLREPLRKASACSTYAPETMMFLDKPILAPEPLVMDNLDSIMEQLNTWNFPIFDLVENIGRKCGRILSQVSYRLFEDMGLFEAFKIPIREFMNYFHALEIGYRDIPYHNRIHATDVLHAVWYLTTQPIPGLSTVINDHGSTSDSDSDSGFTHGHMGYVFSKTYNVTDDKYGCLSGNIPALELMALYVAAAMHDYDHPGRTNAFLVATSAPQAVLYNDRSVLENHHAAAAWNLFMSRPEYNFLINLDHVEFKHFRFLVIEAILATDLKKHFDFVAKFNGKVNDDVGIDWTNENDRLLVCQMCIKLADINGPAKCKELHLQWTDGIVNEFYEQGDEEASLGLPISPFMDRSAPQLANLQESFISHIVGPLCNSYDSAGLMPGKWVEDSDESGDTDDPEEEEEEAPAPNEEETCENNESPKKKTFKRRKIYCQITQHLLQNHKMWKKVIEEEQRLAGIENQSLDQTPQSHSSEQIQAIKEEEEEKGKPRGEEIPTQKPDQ
CYP1A2, sequence (P05177 whole entry): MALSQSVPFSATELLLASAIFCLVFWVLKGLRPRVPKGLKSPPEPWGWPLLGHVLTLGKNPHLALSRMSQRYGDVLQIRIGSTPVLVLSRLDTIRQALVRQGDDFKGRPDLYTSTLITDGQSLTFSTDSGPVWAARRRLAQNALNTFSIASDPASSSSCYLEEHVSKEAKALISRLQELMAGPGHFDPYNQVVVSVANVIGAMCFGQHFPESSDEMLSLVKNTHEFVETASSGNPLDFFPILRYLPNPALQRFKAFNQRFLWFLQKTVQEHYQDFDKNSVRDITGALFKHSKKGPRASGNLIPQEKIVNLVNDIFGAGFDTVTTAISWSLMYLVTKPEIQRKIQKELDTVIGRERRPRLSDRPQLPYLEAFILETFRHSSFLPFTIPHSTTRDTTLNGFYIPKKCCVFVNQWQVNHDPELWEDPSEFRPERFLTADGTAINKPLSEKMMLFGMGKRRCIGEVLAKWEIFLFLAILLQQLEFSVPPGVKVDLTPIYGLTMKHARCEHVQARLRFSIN
CYP2C19, sequence (P33261 whole entry): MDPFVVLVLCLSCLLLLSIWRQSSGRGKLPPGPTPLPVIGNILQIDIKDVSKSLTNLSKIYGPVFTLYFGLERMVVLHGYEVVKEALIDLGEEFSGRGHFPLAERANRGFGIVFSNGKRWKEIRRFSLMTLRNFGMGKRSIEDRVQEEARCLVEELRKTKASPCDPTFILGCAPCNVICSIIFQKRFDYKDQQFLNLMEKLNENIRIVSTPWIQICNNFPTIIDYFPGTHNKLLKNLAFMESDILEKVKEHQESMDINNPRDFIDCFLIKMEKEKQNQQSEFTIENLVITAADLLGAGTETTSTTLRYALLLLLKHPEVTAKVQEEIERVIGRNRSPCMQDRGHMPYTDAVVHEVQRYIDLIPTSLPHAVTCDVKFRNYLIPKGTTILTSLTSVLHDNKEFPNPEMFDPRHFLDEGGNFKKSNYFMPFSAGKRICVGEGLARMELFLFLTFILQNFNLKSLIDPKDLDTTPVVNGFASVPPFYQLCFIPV
CYP3A-M, sequence (P08684 2-503): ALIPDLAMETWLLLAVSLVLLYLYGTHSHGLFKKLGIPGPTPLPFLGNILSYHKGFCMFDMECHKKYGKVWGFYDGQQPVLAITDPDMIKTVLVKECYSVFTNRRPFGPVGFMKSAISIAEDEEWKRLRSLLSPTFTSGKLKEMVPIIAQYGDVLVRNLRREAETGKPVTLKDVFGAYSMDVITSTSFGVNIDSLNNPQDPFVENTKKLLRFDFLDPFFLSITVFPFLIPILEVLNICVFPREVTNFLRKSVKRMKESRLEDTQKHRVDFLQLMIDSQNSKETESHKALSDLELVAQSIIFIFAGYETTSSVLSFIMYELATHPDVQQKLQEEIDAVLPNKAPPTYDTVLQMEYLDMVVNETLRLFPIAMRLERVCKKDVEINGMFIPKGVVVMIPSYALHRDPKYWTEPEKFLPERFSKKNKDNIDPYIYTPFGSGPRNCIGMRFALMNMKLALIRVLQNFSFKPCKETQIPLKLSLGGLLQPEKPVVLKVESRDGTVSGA
CYP2D6, sequence (P10635 whole entry): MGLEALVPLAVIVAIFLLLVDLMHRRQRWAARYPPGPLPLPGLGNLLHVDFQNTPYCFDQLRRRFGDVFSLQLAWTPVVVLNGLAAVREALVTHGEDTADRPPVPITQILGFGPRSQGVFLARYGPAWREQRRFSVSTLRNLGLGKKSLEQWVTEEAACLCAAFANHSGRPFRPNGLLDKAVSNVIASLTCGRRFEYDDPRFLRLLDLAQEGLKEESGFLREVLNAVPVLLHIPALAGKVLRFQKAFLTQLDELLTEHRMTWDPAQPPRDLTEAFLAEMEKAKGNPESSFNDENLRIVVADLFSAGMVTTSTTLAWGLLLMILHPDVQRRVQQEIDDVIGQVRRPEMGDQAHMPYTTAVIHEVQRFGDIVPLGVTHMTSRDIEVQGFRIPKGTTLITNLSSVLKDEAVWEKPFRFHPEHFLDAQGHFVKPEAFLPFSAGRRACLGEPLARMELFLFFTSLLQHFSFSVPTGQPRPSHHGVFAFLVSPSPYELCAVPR
CYP2C9, sequence (P11712 whole entry): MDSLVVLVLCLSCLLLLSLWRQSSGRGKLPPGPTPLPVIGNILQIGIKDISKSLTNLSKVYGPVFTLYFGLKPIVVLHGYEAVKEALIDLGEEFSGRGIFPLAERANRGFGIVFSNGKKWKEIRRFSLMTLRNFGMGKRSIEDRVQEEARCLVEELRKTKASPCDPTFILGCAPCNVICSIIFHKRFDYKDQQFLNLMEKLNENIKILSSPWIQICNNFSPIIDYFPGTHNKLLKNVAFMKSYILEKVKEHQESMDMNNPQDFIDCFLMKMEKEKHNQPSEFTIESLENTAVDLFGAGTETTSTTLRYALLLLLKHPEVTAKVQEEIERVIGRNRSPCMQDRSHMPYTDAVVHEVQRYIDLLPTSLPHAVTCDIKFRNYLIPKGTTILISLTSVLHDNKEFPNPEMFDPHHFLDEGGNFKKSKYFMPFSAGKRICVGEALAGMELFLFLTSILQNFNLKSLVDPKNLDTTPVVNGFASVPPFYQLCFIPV

Row | SMILES | pIC50 (PDE3A) | pIC50 (PDE4B1) | also measured
1 | COc1cc2c(cc1OC)C(C)Cn1c-2cc(=Nc2c(C)cc(C)cc2C)n(CCNC(N)=O)c1=O (centres unmarked) [Compound 9] | 8.25 | 6.94 | 
2 | COCCOc1cc2c(cc1OC)-c1cc(=Nc3c(C)cc(C)cc3C)n(CCNC(=O)c3c(O)nnn3C)c(=O)n1CC2 [Compound 28] | 9.34 | 6.32 | 
3 | COc1cc2c(cc1OC)-c1cc(N(c3c(C)cc(C)cc3C)C3CCN(C(=O)c4c(O)nnn4C)C3)nc(=O)n1CC2 (centres unmarked) [Compound 35] | 9.25 | 5.89 | 
4 | CCOc1cc2c(cc1OC)-c1cc(N(CCNC(=O)c3c(O)nnn3C)c3c(C)cc(C)cc3C)nc(=O)n1CC2 [Compound 43] | 9.72 | 7.87 | 
5 | CCOc1cc2c(cc1OC)-c1cc(=Nc3c(C)cc(C)cc3C)n(CCC(N)C(F)(F)F)c(=O)n1CC2 (centres unmarked) [Compound 79] |  |  | pIC50 (PDE3A; [1]): 9.48; pIC50 (PDE4B1; [2]): 5.54
6 | COc1cc2c(cc1OC)-c1cc(=Nc3c(C)cc(C)cc3C)n(CCNC(N)=O)c(=O)n1CCO2 [Compound 22] | 8.48 | 6.14 | 
7 | CCOc1cc2c(cc1OC)-c1cc(N(CCC(N)C(F)(F)F)c3c(C)cc(C)cc3C)nc(=O)n1CC2 (centres unmarked) [Compound 78] |  |  | pIC50 (PDE3A; [1]): 10.57; pIC50 (PDE4B1; [2]): 8.05
8 | COc1cc2c(cc1OC)-c1cc(N(CCC#N)c3c(C)cc(C)cc3C)nc(=O)n1CC2 [Compound 1] | 9.96 | 6.53 | 
9 | COc1cc2c(cc1OC)-c1cc(N(CCNC(N)=O)c3c(C)cc(C)cc3C)nc(=O)n1CC2 [Compound 45] | 10.49 | 7.00 | 
10 | COc1cc2c(cc1OCC(F)(F)F)CCn1c-2cc(=Nc2c(C)cc(C)cc2C)n(CCNC(=O)c2c(O)nnn2C)c1=O [Compound 26] |  |  | pIC50 (PDE3A; [1]): 9.47; pIC50 (PDE4B1; [2]): 6.38
11 | COc1cc2c(cc1OC)-c1cc(=Nc3c(C)cc(C)cc3C)n(CCNC(=O)N3Cc4cn(C5CC5)nc4C3)c(=O)n1CC2 [Compound 68] | 8.74 | 6.48 | 
12 | CCOc1cc2c(cc1OC)-c1cc(N(CCC(=O)O)c3c(C)cc(C)cc3C)nc(=O)n1CC2 [Compound 61] | 11.21 | 7.95 | pIC50 (CYP2C9): < 4.30; pIC50 (CYP2D6): < 4.30; IC50 at 10 min (CYP3A-M): > 50 µM; pIC50 (CYP1A2): < 4.30; pIC50 (CYP2C19): < 4.30
13 | CCOc1cc2c(cc1OC)-c1cc(N(CC(=O)O)c3c(C)cc(C)cc3C)nc(=O)n1CC2 [Compound 76] | 10.00 | 6.76 | 
14 | CCOc1cc2c(cc1OC)-c1cc(=Nc3c(C)cc(C)cc3C)n(CCC(C)(C)O)c(=O)n1CC2 [Compound 54] |  |  | pIC50 (PDE3A; [1]): 9.37; pIC50 (PDE4B1; [2]): 6.16
15 | COc1cc2c(cc1OC)-c1cc(=Nc3c(C)cc(C)cc3C)n(CCNC(=O)c3cccn(C4CC4)c3=O)c(=O)n1CC2 [Compound 41] | 8.94 | 6.60 | 
16 | CCOc1cc2c(cc1OC)-c1cc(N(CCN3CCS(=O)(=O)CC3)c3c(C)cc(C)cc3C)nc(=O)n1CC2 [Compound 72] |  |  | pIC50 (PDE3A; [1]): 10.13; pIC50 (PDE4B1; [2]): 8.30
17 | COc1cc2c(cc1OC)-c1cc(N(CCNC(=O)N3CCOCC3CO)c3c(C)cc(C)cc3C)nc(=O)n1CC2 (centres unmarked) [Compound 48] | 9.80 | 6.24 | 
18 | COc1cc2c(cc1OC)-c1cc(=Nc3c(C)cc(C)cc3C)n(CCNC(=O)c3cccn(C)c3=O)c(=O)n1CC2 [Compound 39] | 9.14 | 7.73 | 
